The nature of this data set: Fluorescence activation of III-3 fluorophore by Pepper aptamers and mutants. Format: biochemical. Particulars: 1 μM III-3 with 5 μM RNA. The procedure:
Preparation of Pepper or Pepper mutant aptamer according to the commonly used experimental method (1). 5 μM aptamer and 1 μM fluorophore were incubated in the detection buffer (40 mM HEPES, pH 7.4, 125 mM KCl, 5 mM MgCl2, 5% DMSO). The maximal excitation and emission peaks of the aptamer-fluorophore complexes were determined using a Synergy Neo2 multifunctional microplate reader. The fluorescence intensities of the aptamer-fluorophore complexes at the maximal excitation and emission peaks were determined using a Synergy Neo2 multifunctional microplate reader. The control sample (1 μM fluorophore without aptamer) was also measured under the same conditions. Then the ratios of fluorescence intensity were calculated. For example, the fluorescence maximal excitation and emission peaks of the complex of 5 μM F30-Pepper-2 and 1 μM III-3 fluorophore are 485 nm and 530 nm, respectively. The fluorescence intensity of the complex at 485±10 nm excitation and 530 nm±10 nm emission was 36,000, the fluorescence intensity of the control sample (1 μM III-3 fluorophore only) under the same detection conditions was 10. Thus, the activation ratio of F30-Pepper-2 aptamer on III-3 fluorophore was 3,600-fold.
In order to detect the fluorescence activation of III-3 fluorophore by different Pepper mutant, the Pepper-1 sequence in F30-Pepper-1 was mutated according to Table 1. […] 1 μM III-3 was incubated with […] RNA and their fluorescence activation folds were determined according to the commonly used experimental method (5). […] In summary, many Pepper mutants containing single and multiple mutants still retain the ability to activate the fluorescence of III-3 fluorophore.
In order to detect the activation of III-3 by modified Pepper, base-modified Pepper-3 was synthesized (SEQ ID NO: 6, the underlined nucleotides in […] GGCC contain deoxyribonucleotide bases) and Pepper-4 (SEQ ID NO: 7, the underlined nucleotides in […] GGGCC contain 2′-F modification) (synthesized by Shanghai GenePharma Co., Ltd), which contain deoxyribonucleotides replacement (shaded bases in FIG. 5A) or 2′-F modification (shaded bases in FIG. 5B) in the stem-loop region of Pepper. Detection of the fluorescence activation of III-3 fluorophore by these modified Peppers was carried out according to the commonly used experimental method (5).

[1] abbreviates: Activation of III-3 by Pepper mutants with single mutation.
Setting [2] is: Activation of III-3 by Pepper mutants with multiple mutations.

Regarding “A4C: F30-Pepper-1 mutant aptamer (NCCCAUCGUGGCGUGUCGNNNACUGGCGCCGN; Pepper mutant embedded in F30 scaffold, chemistry not given here, further chemistry not given here) [Compound A4C]”, under setting [1], the Activation folds was 2772 folds.
Still for that read-out and setting: the same measure for “A5C: F30-Pepper-1 mutant aptamer (NCCACUCGUGGCGUGUCGNNNACUGGCGCCGN; Pepper mutant embedded in F30 scaffold, chemistry not given here, further chemistry not given here) [Compound A5C]”: 2628 folds.
As for “C2A/G31U/G10A/C30U: F30-Pepper-1 mutant aptamer (NACAAUCGUAGCGUGUCGNNNACUGGCGCUUN; Pepper mutant embedded in F30 scaffold, chemistry not given here, further chemistry not given here)”, the Activation folds under setting [2] was found to be 3105 folds.
Turning to “C2A/G31U/G10C/C30G: F30-Pepper-1 mutant aptamer (NACAAUCGUCGCGUGUCGNNNACUGGCGCGUN; Pepper mutant embedded in F30 scaffold, chemistry not given here, further chemistry not given here)”, under setting [2], the Activation folds is given as 3475 folds.
For the substance “C2A/G31U/G10U/C30A: F30-Pepper-1 mutant aptamer (NACAAUCGUUGCGUGUCGNNNACUGGCGCAUN; Pepper mutant embedded in F30 scaffold, chemistry not given here, further chemistry not given here)”, the Activation folds under setting [2] is listed as 3024 folds.
Same read-out and setting: under “C2A/G31U: F30-Pepper-1 mutant aptamer (NACAAUCGUGGCGUGUCGNNNACUGGCGCCUN; Pepper mutant embedded in F30 scaffold, chemistry not given here, further chemistry not given here)” stands 3365 folds.
Same read-out and setting: the same measure for “C2G/G31C/G10A/C30U/U6G/C27U: F30-Pepper-1 mutant aptamer (NGCAAGCGUAGCGUGUCGNNNACUGGUGCUCN; RNA, backbone, methylation of C and the base at N not given here; Pepper aptamer mutant embedded in F30 scaffold)”: 758 folds; for “C2G/G31C/G10A/C30U: F30-Pepper-1 mutant aptamer (NGCAAUCGUAGCGUGUCGNNNACUGGCGCUCN; Pepper mutant embedded in F30 scaffold, chemistry not given here, further chemistry not given here)”: 2365 folds; for “C2G/G31C/G10C/C30G/U6G/C27U: F30-Pepper-1 mutant aptamer (NGCAAGCGUCGCGUGUCGNNNACUGGUGCGCN; RNA, backbone, methylation of C and the base at N not given here; Pepper aptamer mutant embedded in F30 scaffold)”: 736 folds.
Same read-out and setting: under “C2G/G31C/G10C/C30G: F30-Pepper-1 mutant aptamer (NGCAAUCGUCGCGUGUCGNNNACUGGCGCGCN; Pepper mutant embedded in F30 scaffold, chemistry not given here, further chemistry not given here)” stands 2684 folds; under “C2G/G31C/G10U/C30A: F30-Pepper-1 mutant aptamer (NGCAAUCGUUGCGUGUCGNNNACUGGCGCACN; Pepper mutant embedded in F30 scaffold, chemistry not given here, further chemistry not given here)”, 3125 folds.
For “C2U/G31A/G10C/C30G: F30-Pepper-1 mutant aptamer (NUCAAUCGUCGCGUGUCGNNNACUGGCGCGAN; Pepper mutant embedded in F30 scaffold, chemistry not given here, further chemistry not given here)”, the Activation folds under setting [2] was 2986 folds.
Turning to “C2U/G31A/G10U/C30A: F30-Pepper-1 mutant aptamer (NUCAAUCGUUGCGUGUCGNNNACUGGCGCAAN; Pepper mutant embedded in F30 scaffold, chemistry not given here, further chemistry not given here)”, the Activation folds under setting [2] turned out to be 2583 folds.
Same read-out and setting: under “C2U/G31A: F30-Pepper-1 mutant aptamer (NUCAAUCGUGGCGUGUCGNNNACUGGCGCCAN; Pepper mutant embedded in F30 scaffold, chemistry not given here, further chemistry not given here)” stands 3256 folds.
As for “C3A: F30-Pepper-1 mutant aptamer (NCAAAUCGUGGCGUGUCGNNNACUGGCGCCGN; RNA, backbone, methylation of C and the base at N not given here; Pepper aptamer mutant embedded in F30 scaffold) [Compound C3A]”, under setting [1], the Activation folds stood at 2484 folds.
On the same count and under the same terms, the same measure for “C3U: F30-Pepper-1 mutant aptamer (NCUAAUCGUGGCGUGUCGNNNACUGGCGCCGN; RNA, backbone, methylation of C and the base at N not given here; Pepper aptamer mutant embedded in F30 scaffold) [Compound C3U]”: 2016 folds.
Same read-out and setting: the same measure for “C7A: F30-Pepper-1 mutant aptamer (NCCAAUAGUGGCGUGUCGNNNACUGGCGCCGN; RNA, backbone, methylation of C and the base at N not given here; Pepper aptamer mutant embedded in F30 scaffold) [Compound C7A]”: 1044 folds.
For the substance “C7U: F30-Pepper-1 mutant aptamer (NCCAAUUGUGGCGUGUCGNNNACUGGCGCCGN; RNA, backbone, methylation of C and the base at N not given here; Pepper aptamer mutant embedded in F30 scaffold) [Compound C7U]”, the Activation folds under setting [1] amounted to 2268 folds.
The same measure, in the same setting: the same measure for “C12U: F30-Pepper-1 mutant aptamer (NCCAAUCGUGGUGUGUCGNNNACUGGCGCCGN; Pepper mutant embedded in F30 scaffold, chemistry not given here, further chemistry not given here) [Compound C12U]”: 2268 folds; for “C27G: F30-Pepper-1 mutant aptamer (NCCAAUCGUGGCGUGUCGNNNACUGGGGCCGN; Pepper mutant embedded in F30 scaffold, chemistry not given here, further chemistry not given here) [Compound C27G]”: 1875 folds; for “C27U: F30-Pepper-1 mutant aptamer (NCCAAUCGUGGCGUGUCGNNNACUGGUGCCGN; Pepper mutant embedded in F30 scaffold, chemistry not given here, further chemistry not given here) [Compound C27U]”: 3158 folds.
In the case of “C29G: F30-Pepper-1 mutant aptamer (NCCAAUCGUGGCGUGUCGNNNACUGGCGGCGN; Pepper mutant embedded in F30 scaffold, chemistry not given here, further chemistry not given here) [Compound C29G]”, the Activation folds under setting [1] came to 2145 folds.
On the same count and under the same terms, under “C29U: F30-Pepper-1 mutant aptamer (NCCAAUCGUGGCGUGUCGNNNACUGGCGUCGN; Pepper mutant embedded in F30 scaffold, chemistry not given here, further chemistry not given here) [Compound C29U]” stands 1437 folds; under “C30A: F30-Pepper-1 mutant aptamer (NCCAAUCGUGGCGUGUCGNNNACUGGCGCAGN; RNA, backbone, methylation of C and the base at N not given here; Pepper aptamer mutant embedded in F30 scaffold) [Compound C30A]”, 1596 folds; under “C30U: F30-Pepper-1 mutant aptamer (NCCAAUCGUGGCGUGUCGNNNACUGGCGCUGN; RNA, backbone, methylation of C and the base at N not given here; Pepper aptamer mutant embedded in F30 scaffold) [Compound C30U]”, 2587 folds.
On the same count and under the same terms, the same measure for “G11A: F30-Pepper-1 mutant aptamer (NCCAAUCGUGACGUGUCGNNNACUGGCGCCGN; RNA, backbone, methylation of C and the base at N not given here; Pepper aptamer mutant embedded in F30 scaffold) [Compound G11A]”: 1526 folds.

For the origin of these results see patent US12662676B2, “Aptamer nucleic acid molecule, and complex and application thereof” (EAST CHINA UNIVERSITY OF SCIENCE AND TECHNOLOGY, priority 2019, dated 2026).
